Test results: US11964984B2, “TXNIP-TRX complex inhibitors and methods of using the same” (CITY OF HOPE, priority 2020, dated 2024)

Key:
TXNIP mRNA [1] = assay: TXNIP expression in murine kidneys after oral dosing (RT-PCR); assay type: in vivo, C57BL/6 mice; settings: 90 mg/kg oral gavage daily for five days, 96 hr after last dose
Method: FIG. 17. Compounds C30 and C38 reduce TXNIP expression in murine kidneys. Twelve male C57BL/6 mice were divided into three groups (vehicle, C30 and C38, 4/group). They received 90 mg/kg dose of compounds daily for five consecutive days. Compounds were given through oral gavage and mice were humanely euthanized 96 hr after the last drug administration. Kidneys were collected for total RNA preparation. RT-PCR was performed in triplicate and data shown are the mean±SEM. Statistical analysis was performed using one-way ANOVA: *p<0.05.
(§1) The effects of compounds C30 and C38 at single high dose of 90 mg/kg. Twelve male mice were divided into three groups: 1) Control group (4 mice), 2) compound C30 (4 mice) and 3) compound C38 (4 mice). By oral gavage, animals were given 90 mg/kg of agent daily for 5 consecutive days (vehicle: 30% Solutol in saline). Mice were weighed every day during the treatment period. They were humanely euthanized 96 hours after the last dose. Tissues including the pancreas, liver and kidneys were collected (snap frozen in liquid nitrogen) for RNA extraction. […] Those given compound C30 lost ˜5% of body weight (FIG. 15).
(§2) Expression of TXNIP in vivo in treated mice.

TXNIP mRNA [2] = assay: TXNIP expression in murine blood after oral dosing (RT-PCR); assay type: in vivo, C57BL/6 mice; settings: 90 mg/kg oral gavage daily for five days, 96 hours after last dose
Method: FIG. 16. Compounds C30 and C38 reduce TXNIP expression in murine blood. Twelve male C57BL/6 mice were divided into three groups (vehicle, C30 and C38). They received 90 mg/kg of the indicated compounds via oral gavage daily for five days. Animals were humanely euthanized 96 hours after administration of the last drug dose. Blood samples were collected for total RNA extraction. RT-PCR was performed in triplicate and data shown are the mean±SEM. Statistical analysis was performed using one-way ANOVA: *p<0.001.
as §1, §2

TXNIP = target: T1, TXNIP (Homo sapiens, UniProt Q9H3M7); assay: Drug affinity responsive target stability (DARTS) assay, THP1 cell extracts; assay type: binding; settings: THP-1 cell extracts, protease, aliquots at 7 minutes
T1 construct: THP1 cells were lysed with extract buffer; endogenous in cells; host or cells: THP1 cells cultured in RPMI 1640 under 25 mM glucose for 72 hours; cell extracts
T1 sequence (Q9H3M7 1-391): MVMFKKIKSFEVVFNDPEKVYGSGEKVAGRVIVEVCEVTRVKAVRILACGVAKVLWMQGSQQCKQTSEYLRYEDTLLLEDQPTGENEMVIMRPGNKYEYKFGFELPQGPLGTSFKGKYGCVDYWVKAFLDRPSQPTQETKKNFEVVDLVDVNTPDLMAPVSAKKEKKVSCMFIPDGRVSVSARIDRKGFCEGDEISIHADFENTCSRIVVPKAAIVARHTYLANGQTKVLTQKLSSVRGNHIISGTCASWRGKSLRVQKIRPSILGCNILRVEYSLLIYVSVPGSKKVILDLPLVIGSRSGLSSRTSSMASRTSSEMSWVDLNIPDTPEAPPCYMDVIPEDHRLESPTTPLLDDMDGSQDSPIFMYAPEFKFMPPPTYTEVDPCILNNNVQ
Method: FIG. 9. Treatment with C30 and C38 protects TXNIP from proteolysis in a DARTS assay. THP1 cell were cultured in RPMI 1640 medium under 25 mM glucose for 72 hours. Cell extracts were prepared. C30 and C38 were added at the indicated concentrations and protease was added except control lanes. Aliquots were withdrawn at 7 minutes and loaded on 10% SDS gels. Control: without protease.
Experimental testing of small molecules: We developed several different bench-based assays to perform rigorous and reproducible tests for the predicted hit molecules. These assays include testing direct binding to TXNIP as well as functional assays including under diabetic high glucose conditions. The assays are: (1) drug affinity responsive target stability test that tests the direct binding of the compounds. In this assay, when a compound binds to its target molecule, it can reduce the rate of its proteolytic digestion. (2) This assay looks for compounds that can interfere with the interaction between TXNIP and TRX in THP-1 monocytes treated with high glucose. TXNIP is highly expressed in cells treated with high glucose, and therefore would have high concentration of TXNIP/TRX complexes in the cell extract. Co-immunoprecipitation was done in these extracts through adding TRX antibody, and then the effects of compounds added were tested. […]

| concentration from which TXNIP is protected from proteolysis (TXNIP) [µM] | Structure (SMILES) | RNA expression level of TXNIP in kidneys (TXNIP mRNA [1]) | RNA expression level of TXNIP in blood (TXNIP mRNA [2]) |
| --- | --- | --- | --- |
| ~0.5 | COc1cc(N2CC[C@@H](c3ccc4ccccc4c3)[C@H](O)C2)nc(N)n1 [Compound C30] | reduced | reduced |
| ~0.5 | c1ccc(CCNc2ncnc3c2oc2ccccc23)cc1 [Compound C38] | reduced | reduced |
